This assay deals with Trypanothione reductase (Trypanosoma cruzi, UniProt P28593). Kind of assay: Inhibition of Trypanosoma cruzi TryR using trypanothione as substrate preincubated for 10 mins.

9 compounds from ChEMBL document CHEMBL1821573, “A fast virtual screening approach to identify structurally diverse inhibitors of trypanothione reductase” (Bioorg Med Chem Lett, 2011) can be followed below.

Sequence of Trypanothione reductase (P28593 whole entry): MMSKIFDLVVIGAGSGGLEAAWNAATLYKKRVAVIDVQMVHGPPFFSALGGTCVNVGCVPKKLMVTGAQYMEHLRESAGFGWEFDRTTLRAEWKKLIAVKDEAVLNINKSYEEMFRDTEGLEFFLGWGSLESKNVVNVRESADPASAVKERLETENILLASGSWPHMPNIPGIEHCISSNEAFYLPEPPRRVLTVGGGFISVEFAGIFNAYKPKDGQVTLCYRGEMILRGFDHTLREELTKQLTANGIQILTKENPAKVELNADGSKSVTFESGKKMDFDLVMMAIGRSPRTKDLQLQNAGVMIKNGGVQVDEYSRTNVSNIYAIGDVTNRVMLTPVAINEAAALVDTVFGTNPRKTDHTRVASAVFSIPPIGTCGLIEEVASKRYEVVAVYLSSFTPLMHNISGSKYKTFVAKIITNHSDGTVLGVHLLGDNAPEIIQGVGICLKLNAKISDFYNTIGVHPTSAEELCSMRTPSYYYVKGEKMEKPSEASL

As to `Cc1ccc2nc(Cc3ccc(NC(=O)C(C)Oc4ccccc4)cc3)[nH]c2c1` (centres undefined), affinity was put at a Ki of 26.9 µM.

Turning to `Cc1ccc2[nH]c(Cc3ccc(NC(=O)CCc4nc5ccccc5[nH]4)cc3)nc2c1`, the Ki was found to be 13.1 µM.

Turning to `COCCn1c(-c2ccccc2)cnc1SCC(=O)CNc1ccc(S(=O)(=O)N2CCCCC2)cc1`, the affinity corresponds to a Ki of 11.1 µM.

Compound `Cc1sc2ncn3c(SCC(=O)Nc4sc5c(c4C#N)CCCC5)nnc3c2c1C` displayed a Ki of 11.8 µM.

As to `N#Cc1c(NC(=O)CSc2nc(-c3ccc(Cl)cc3)c[nH]2)sc2c1CCCC2`, the inhibition constant Ki came out at 9.3 µM.

`Nc1ccc2[nH]c(CCCCCCCCc3nc4cc(N)ccc4[nH]3)nc2c1` gave an inhibition constant Ki of 10.6 µM.

The compound `CCn1c(-c2ccccc2)cnc1SCC(=O)Nc1sc2c(c1C#N)CCCC2` displayed a Ki of 13.1 µM.

Compound `CCn1c(-c2ccccc2)cnc1SCC(=O)Nc1ccc(C2CCCCC2)cc1` showed an inhibition constant (Ki) of 5.7 µM.

As to `O=C(CNc1ccc(S(=O)(=O)N2CCCCC2)cc1)CSc1ncc(-c2ccc(Cl)cc2)n1-c1ccccc1`, the affinity, expressed as Ki, was 22.3 µM.
